Test results as given in PubChem BioAssay AID1745844 (Carcinogenic Potency Database (CPDB), 2022).
Values joined by “and” are separate entries in the source; they are usually repeats but may differ in a detail not shown here. Equal values may be shown once. Active and inactive are the calls of the source. The rule behind the calls is not given here.

System: rodent lifetime carcinogenesis bioassay, tumor incidence TD50
Assay: carcinogenic potency in animals, long-term in vivo studies, CPDB compilation (AID 1745844)

**Q.** Which results are given for `CCC1C(=O)OCC1Cc1cncn1C` (stereo not drawn)?
**A.** TD50 (rat, strain Sprague-Dawley, females, i.p., site: any site (literature study), lesion: malignant tumor, dosed 104 weeks, study length 104 weeks): 98.4 mg/kg/day (inactive); TD50 (rat, strain Sprague-Dawley, males, i.p., site: any site (literature study), lesion: malignant tumor, dosed 104 weeks, study length 104 weeks): 1750 mg/kg/day (inactive)

**Q.** Which carcinogen call (mouse, strain C3H/HeN, males, in drinking water, site: liver, lesion: several types, types named in the paper, dosed 58 weeks, study length 58 weeks) does the source give for `O=C(O[C@@H]1Cc2c(O)cc(O)cc2O[C@@H]1c1cc(O)c(O)c(O)c1)c1cc(O)c(O)c(O)c1` here?
**A.** negative (inactive)

**Q.** Which results are given for `[N-]=[N+]=O`?
**A.** carcinogen call (mouse, strain Swiss Webster, females, inhaled, site: liver, lesion: one or several types, types not named, dosed 78 weeks, study length 83 weeks): negative (inactive); TD50 (mouse, strain Swiss Webster, females, inhaled, site: lung, lesion: adenoma, dosed 78 weeks, study length 83 weeks): 309000 mg/kg/day (inactive); carcinogen call (mouse, strain Swiss Webster, females, inhaled, site: several sites, sites named in the paper, lesion: one or several types, types not named, dosed 78 weeks, study length 83 weeks): negative (inactive); carcinogen call (mouse, strain Swiss Webster, males, inhaled, site: liver, lesion: one or several types, types not named, dosed 78 weeks, study length 83 weeks): negative (inactive); carcinogen call (mouse, strain Swiss Webster, males, inhaled, site: lung, lesion: adenoma, dosed 78 weeks, study length 83 weeks): negative (inactive); carcinogen call (mouse, strain Swiss Webster, males, inhaled, site: several sites, sites named in the paper, lesion: one or several types, types not named, dosed 78 weeks, study length 83 weeks): negative (inactive)

**Q.** What does the source list for `O=c1[nH]nc(-c2ccc([N+](=O)[O-])o2)o1`?
**A.** TD50 (rat, strain Sprague-Dawley, females, in feed, site: any site (literature study), lesion: several types, types named in the paper, dosed 46 weeks, study length 66 weeks): 8.61 mg/kg/day; TD50 (rat, strain Sprague-Dawley, females, in feed, site: mammary gland, lesion: adenocarcinoma, dosed 46 weeks, study length 66 weeks): 31.2 mg/kg/day; TD50 (rat, strain Sprague-Dawley, females, in feed, site: mammary gland, lesion: several types, types named in the paper, dosed 46 weeks, study length 66 weeks): 8.61 mg/kg/day

**Q.** Which carcinogen call (mouse, strain B6AKF1, females, oral dosing, site: any site (literature study), lesion: several types, types named in the paper, dosed 76 weeks, study length 76 weeks) does the source give for `[S-]c1nc2ccccc2s1.[S-]c1nc2ccccc2s1.[Zn+2]` here?
**A.** negative (inactive)

**Q.** What about the carcinogen call (mouse, strain B6AKF1, females, oral dosing, site: liver, lesion: hepatoma, dosed 76 weeks, study length 76 weeks) of the same compound?
**A.** negative (inactive)

**Q.** What about the carcinogen call (mouse, strain B6AKF1, females, oral dosing, site: lung, lesion: adenoma, dosed 76 weeks, study length 76 weeks) of the same compound?
**A.** negative (inactive)

**Q.** What about the carcinogen call (mouse, strain B6AKF1, males, oral dosing, site: any site (literature study), lesion: several types, types named in the paper, dosed 76 weeks, study length 76 weeks) of the same compound?
**A.** negative (inactive)

**Q.** What about the carcinogen call (mouse, strain B6AKF1, males, oral dosing, site: liver, lesion: hepatoma, dosed 76 weeks, study length 76 weeks) of the same compound?
**A.** negative (inactive)

**Q.** What about the carcinogen call (mouse, strain B6AKF1, males, oral dosing, site: lung, lesion: adenoma, dosed 76 weeks, study length 76 weeks) of the same compound?
**A.** negative (inactive)

**Q.** What about the TD50 (mouse, strain B6C3F1, females, oral dosing, site: any site (literature study), lesion: several types, types named in the paper, dosed 76 weeks, study length 76 weeks) of the same compound?
**A.** 2790 mg/kg/day (inactive)

**Q.** What about the carcinogen call (mouse, strain B6C3F1, females, oral dosing, site: liver, lesion: hepatoma, dosed 76 weeks, study length 76 weeks) of the same compound?
**A.** negative (inactive)

**Q.** What about the carcinogen call (mouse, strain B6C3F1, females, oral dosing, site: lung, lesion: several types, types named in the paper, dosed 76 weeks, study length 76 weeks) of the same compound?
**A.** negative (inactive)

**Q.** And the TD50 (mouse, strain B6C3F1, males, oral dosing, site: any site (literature study), lesion: several types, types named in the paper, dosed 76 weeks, study length 76 weeks)?
**A.** 319 mg/kg/day (inactive)

**Q.** What about the TD50 (mouse, strain B6C3F1, males, oral dosing, site: liver, lesion: hepatoma, dosed 76 weeks, study length 76 weeks) of the same compound?
**A.** 388 mg/kg/day (inactive)

**Q.** And the TD50 (mouse, strain B6C3F1, males, oral dosing, site: lung, lesion: adenoma, dosed 76 weeks, study length 76 weeks)?
**A.** 2750 mg/kg/day (inactive)

**Q.** Which results are given for `Cc1cc(C)c(N)cc1C`?
**A.** TD50 (mouse, strain B6C3F1, females, in feed, site: any site (literature study), lesion: several types, types named in the paper, dosed 101 weeks, study length 101 weeks): 22.4 mg/kg/day; TD50 (mouse, strain B6C3F1, females, in feed, site: liver, lesion: hepatocellular adenoma + hepatocellular carcinoma + neoplastic nodule, dosed 101 weeks, study length 101 weeks): 6.13 mg/kg/day; TD50 (mouse, strain B6C3F1, females, in feed, site: liver, lesion: hepatocellular carcinoma, dosed 101 weeks, study length 101 weeks): 6.13 mg/kg/day; TD50 (mouse, strain B6C3F1, females, in feed, site: lung, lesion: alveolar/bronchiolar adenoma + alveolar/bronchiolar carcinoma, dosed 101 weeks, study length 101 weeks): 47.6 mg/kg/day; TD50 (mouse, strain B6C3F1, males, in feed, site: any site (literature study), lesion: several types, types named in the paper, dosed 101 weeks, study length 101 weeks): 52.5 mg/kg/day (inactive); TD50 (mouse, strain B6C3F1, males, in feed, site: liver, lesion: hepatocellular adenoma + hepatocellular carcinoma + neoplastic nodule, dosed 101 weeks, study length 101 weeks): 14.4 mg/kg/day; TD50 (mouse, strain CD-1 HaM/ICR, females, in feed, site: any site (literature study), lesion: several types, types named in the paper, dosed 77 weeks, study length 98 weeks): 47.2 mg/kg/day; TD50 (mouse, strain CD-1 HaM/ICR, females, in feed, site: liver, lesion: hepatoma, dosed 77 weeks, study length 98 weeks): 62.9 mg/kg/day and 62.3 mg/kg/day; TD50 (mouse, strain CD-1 HaM/ICR, females, in feed, site: liver, lesion: several types, types named in the paper, dosed 77 weeks, study length 98 weeks): 60.4 mg/kg/day; TD50 (mouse, strain CD-1 HaM/ICR, females, in feed, site: lung, lesion: several types, types named in the paper, dosed 77 weeks, study length 98 weeks): 52.8 mg/kg/day and 64.7 mg/kg/day; TD50 (mouse, strain CD-1 HaM/ICR, males, in feed, site: all sites, lesion: all vascular tumors, dosed 77 weeks, study length 98 weeks): 260 mg/kg/day; TD50 (mouse, strain CD-1 HaM/ICR, males, in feed, site: any site (literature study), lesion: several types, types named in the paper, dosed 77 weeks, study length 98 weeks): 40.3 mg/kg/day; TD50 (mouse, strain CD-1 HaM/ICR, males, in feed, site: liver, lesion: hepatoma, dosed 77 weeks, study length 98 weeks): 46.2 mg/kg/day and 44.2 mg/kg/day; TD50 (mouse, strain CD-1 HaM/ICR, males, in feed, site: liver, lesion: several types, types named in the paper, dosed 77 weeks, study length 98 weeks): 35.4 mg/kg/day; TD50 (mouse, strain CD-1 HaM/ICR, males, in feed, site: lung, lesion: several types, types named in the paper, dosed 77 weeks, study length 98 weeks): 40 mg/kg/day and 63 mg/kg/day; TD50 (rat, strain Charles River CD (Sprague-Dawley), males, in feed, site: any site (literature study), lesion: several types, types named in the paper, dosed 77 weeks, study length 98 weeks): 37.2 mg/kg/day; TD50 (rat, strain Charles River CD (Sprague-Dawley), males, in feed, site: liver, lesion: hepatoma, dosed 77 weeks, study length 98 weeks): 98.5 mg/kg/day; TD50 (rat, strain Charles River CD (Sprague-Dawley), males, in feed, site: liver, lesion: several types, types named in the paper, dosed 77 weeks, study length 98 weeks): 47.9 mg/kg/day; carcinogen call (rat, strain Charles River CD (Sprague-Dawley), males, in feed, site: subcutaneous tissue, lesion: several types, types named in the paper, dosed 77 weeks, study length 98 weeks): positive; TD50 (rat, strain Fischer 344, females, in feed, site: any site (literature study), lesion: several types, types named in the paper, dosed 101 weeks, study length 101 weeks): 396 mg/kg/day; TD50 (rat, strain Fischer 344, females, in feed, site: liver + lung, lesion: hepatocellular carcinoma + neoplastic nodule + alveolar/bronchiolar adenoma + alveolar/bronchiolar carcinoma, dosed 101 weeks, study length 101 weeks): 20.4 mg/kg/day; TD50 (rat, strain Fischer 344, females, in feed, site: liver, lesion: hepatocellular adenoma + hepatocellular carcinoma + neoplastic nodule, dosed 101 weeks, study length 101 weeks): 27.2 mg/kg/day; TD50 (rat, strain Fischer 344, females, in feed, site: liver, lesion: hepatocellular carcinoma + neoplastic nodule, dosed 101 weeks, study length 101 weeks): 27.2 mg/kg/day; TD50 (rat, strain Fischer 344, females, in feed, site: liver, lesion: hepatocellular carcinoma, dosed 101 weeks, study length 101 weeks): 142 mg/kg/day; TD50 (rat, strain Fischer 344, females, in feed, site: lung, lesion: alveolar/bronchiolar adenoma + alveolar/bronchiolar carcinoma, dosed 101 weeks, study length 101 weeks): 88.1 mg/kg/day; TD50 (rat, strain Fischer 344, males, in feed, site: any site (literature study), lesion: several types, types named in the paper, dosed 101 weeks, study length 101 weeks): 138 mg/kg/day; TD50 (rat, strain Fischer 344, males, in feed, site: liver, lesion: bile duct carcinoma, dosed 101 weeks, study length 101 weeks): 268 mg/kg/day; TD50 (rat, strain Fischer 344, males, in feed, site: liver, lesion: hepatocellular adenoma + hepatocellular carcinoma + neoplastic nodule, dosed 101 weeks, study length 101 weeks): 43.8 mg/kg/day; TD50 (rat, strain Fischer 344, males, in feed, site: liver, lesion: hepatocellular carcinoma + neoplastic nodule, dosed 101 weeks, study length 101 weeks): 43.8 mg/kg/day; TD50 (rat, strain Fischer 344, males, in feed, site: liver, lesion: hepatocellular carcinoma, dosed 101 weeks, study length 101 weeks): 71.8 mg/kg/day; TD50 (rat, strain Fischer 344, males, in feed, site: lung, lesion: alveolar/bronchiolar adenoma + alveolar/bronchiolar carcinoma, dosed 101 weeks, study length 101 weeks): 180 mg/kg/day

**Q.** Which results are given for `CN(C)CCC(c1ccc(Cl)cc1)c1ccccn1` (stereo not drawn)?
**A.** carcinogen call (mouse, strain B6C3F1, females, by gavage, site: any site (literature study), lesion: several types, types named in the paper, dosed 103 weeks, study length 104 weeks): negative (inactive); TD50 (mouse, strain B6C3F1, males, by gavage, site: adrenal capsule, lesion: adenoma, NOS, dosed 103 weeks, study length 104 weeks): 84 mg/kg/day (inactive); TD50 (mouse, strain B6C3F1, males, by gavage, site: any site (literature study), lesion: several types, types named in the paper, dosed 103 weeks, study length 104 weeks): 54.1 mg/kg/day; TD50 (mouse, strain B6C3F1, males, by gavage, site: liver, lesion: hepatocellular adenoma + hepatocellular carcinoma + neoplastic nodule, dosed 103 weeks, study length 104 weeks): 101 mg/kg/day; TD50 (mouse, strain B6C3F1, males, by gavage, site: subcutaneous tissue, lesion: fibrosarcoma + fibroma + neurofibrosarcoma + sarcoma, NOS, dosed 103 weeks, study length 104 weeks): 94.7 mg/kg/day; TD50 (mouse, strain B6C3F1, males, by gavage, site: subcutaneous tissue, lesion: fibrosarcoma + neurofibrosarcoma + sarcoma, NOS, dosed 103 weeks, study length 104 weeks): 95.2 mg/kg/day; TD50 (mouse, strain B6C3F1, males, by gavage, site: subcutaneous tissue, lesion: fibrosarcoma, dosed 103 weeks, study length 104 weeks): 140 mg/kg/day; carcinogen call (rat, strain Fischer 344, females, by gavage, site: any site (literature study), lesion: several types, types named in the paper, dosed 103 weeks, study length 104 weeks): negative (inactive); TD50 (rat, strain Fischer 344, females, by gavage, site: liver, lesion: hepatocellular adenoma + hepatocellular carcinoma + neoplastic nodule, dosed 103 weeks, study length 104 weeks): 3180 mg/kg/day; carcinogen call (rat, strain Fischer 344, females, in feed, site: liver, lesion: neoplastic nodule, dosed 106 weeks, study length 128 weeks): negative (inactive); carcinogen call (rat, strain Fischer 344, males, by gavage, site: any site (literature study), lesion: several types, types named in the paper, dosed 103 weeks, study length 104 weeks): negative (inactive); TD50 (rat, strain Fischer 344, males, by gavage, site: liver, lesion: hepatocellular adenoma + hepatocellular carcinoma + neoplastic nodule, dosed 103 weeks, study length 104 weeks): 208 mg/kg/day; carcinogen call (rat, strain Fischer 344, males, in feed, site: liver, lesion: neoplastic nodule, dosed 106 weeks, study length 128 weeks): negative (inactive)
